Assay results: US7109193B2, “Tricyclic diazepines tocolytic oxytocin receptor antagonists” (Wyeth, priority 2001, dated 2006)

Target: T1, human vasopressin V2 receptor subtype (Homo sapiens, UniProt P30518)
T1 construct: host or cells: CHO cells (pZeoSV vector)
Assay: Vasopressin binding in Chinese Hamster Ovary cell membranes expressing human vasopressin V2 subtype receptors
Settings: 100 nM, CHO cell membranes, [3H]arginine vasopressin, values without parentheses
Experimental: Vasopressin Binding in Chinese Hamster Ovary Cell Membranes Expressing Human Vasopressin V2 Subtype Receptors
Chinese Hamster Ovary (CHO) cells stably transfected with the human V2 subtype receptors were obtained from M. Thibonnier, Case Western Reserve University School of Medicine, Cleveland, Ohio.
A. Passaging and Amplification of Cells:
The trypsin is removed by aspiration and the cells dislodged by tapping. Cell Culture medium (e.g. 30 mL for 1:30 split) is immediately added and mixed well to inactivate trypsin. 1 mL of detached cells is added to new culture flasks containing fresh Cell Culture medium (e.g. into 25 mL per T-150 flask), and mixed gently. The cells are incubated at 37° C. in 5% CO2. The medium is changed at 3 to 4 day interval (or as appropriate). […] All steps are done under sterile conditions. B. Membrane Preparation: The cells are washed twice gently with Hank's Balanced Salt solution (e.g. use 10 mL per T-150 flask). […] The contents are transferred to centrifuge tubes (50 mL) kept in ice bath. All subsequent steps are done at 4° C. The tubes are centrifuged at 300×g for 15 min (1380 rpm on SORVAL, Model RT6000D, using the rotor for 50 mL tubes). The supernatant is discarded and the cells suspended in homogenizing buffer (10 mM Tris-HCl containing 0.25 M sucrose and 1 mM EDTA, pH 7.4) ensuring that the volume of the buffer is about ten times the volume of the cell pellet. The cells are pooled into a centrifuge tube (50 mL) and homogenized with a Polytron at setting 6 for 10 sec. The homogenate is transferred into a Potter-Elvjehm homogenizer and homogenized with 3 strokes. The homogenate is centrifuged at 1500×g for 60 min at 4° C. (3100 rpm using SORVAL, model RT6000D, using the rotor for 50 mL tubes). The pellet is discarded. The supernatant is centrifuged at 100,000×g for 60 min. at 4° C. (Beckman L8-80M ultracentrifuge; spin at 37,500 rpm with rotor type 70 Ti for 50 mL tubes; 38,000 rpm with type 80Ti for 15 mL tubes; or 35,800 rpm with rotor type 45Ti). The supernantant is discarded and the pellet suspended in 3 to 4 mL of Tris buffer (50 mM TRIS-HCl, pH 7.4). The protein content is estimated by the Bradford or Lowry method. The volume of the membrane suspension is adjusted with the membrane buffer (50 mM Tris-HCl containing 0.1% BSA and 0.1 mM PMSF) to give 3.0 mg/mL (or as appropriate) of protein. The membranes are aliquoted and stored at −70° C. C. Radioligand Binding Assay: In wells of a 96-well format microtiter plate, is added 90, 110 or 130 μL (to make up a final volume of 200 μL) of assay buffer containing 50 mM of Tris-HCl (pH 7.4), […], 1 mg % aprotinin, 1 mg % leupeptin, 2 mg % 1,10-phenanthroline, 10 mg % trypsin inhibitor, and 0.1 mM PMSF. The inhibitors are added on the day of the experiment. The components are mixed at room temperature, and then kept in ice bath following adjustment of the pH to 7.4. […] For vasopressin and other peptide ligands 20 μL of 50% DMSO is added and the assay buffer volume is adjusted accordingly. To each well is added 50 μL of frozen membrane suspension thawed immediately prior to use and diluted in assay buffer to the required concentration (equivalent to 25 to 50 μg of protein/well as needed). 20 μL of 8 nM [^3H]arginine vasopressin ligand in the assay buffer, prepared just before use is added and incubated at room temperature for 60 min. shaking the plate on a mechanical shaker for the first 15 min. The incubation is stopped by rapid filtration of the plate contents followed by wash with ice-cold buffer (50 mM Tris-HCl, pH 7.4) using a cell harvester (Tomtek and Printed filtermat-B filter paper). The filter paper is thoroughly dried (7–12 min. in a microwave oven) and impregnated with MeltiLex B/H melt-on scintillation wax sheets and the radioactivity counted in a betaplate scintillation counter.

| Compound | V2 % inhibition @ 100 nM [%] | inhibition at 0.1 µM [%] |
| --- | --- | --- |
| COc1cc(-c2ccccc2C)c(Cl)cc1C(=O)N1Cc2ccc(C(=O)N3CCC[C@H]3CN3CCCC3)n2Cc2ccccc21 [Example 267, {10-[(6-Chloro-3-methoxy-2′-methyl[1,1′-biphenyl]-4-yl)carbonyl]-10,11-dihydro-5H-pyrrolo[2,1-c][1,4]benzodiazepin-3-yl}[(2S)-2-(1-pyrrolidinylmethyl)pyrrolidinyl]methanone] | 24 |  |
| Cc1cccc(N2CCN(C(=O)c3ccc4n3Cc3ccccc3N(C(=O)c3ccc(-c5ccccc5C(F)(F)F)c(C)c3)C4)CC2C)c1 (stereo not drawn) [Example 5, [3-Methyl-4-(3-methyl-phenyl)-piperazin-1-yl]-[10-(2-methyl-2′-trifluoromethyl-[1,1′-biphenyl]-4-yl)carbonyl]-10,11-dihydro-5H-pyrrolo[2,1-c][1,4]benzodiazepin-3-yl-methanone] | 3 |  |
| COc1cccc(-c2cc(OC)c(C(=O)N3Cc4ccc(C(=O)N5CCC(N6CCCC6)CC5)n4Cc4ccccc43)cc2Cl)c1 [Example 143, {10-[(6-Chloro-3,3′-dimethoxy[1,1′-biphenyl]-4-yl)carbonyl]-10,11-dihydro-5H-pyrrolo[2,1-c][1,4]benzodiazepin-3-yl}[4-(1-pyrrolidinyl)-1-piperidinyl]methanone] |  | 7 |
| COc1cccc(-c2cc(OC)c(C(=O)N3Cc4ccc(C(=O)N5CCC[C@H]5CN5CCCC5)n4Cc4ccccc43)cc2Cl)c1 [Example 268, {10-[(6-Chloro-3,3′-dimethoxy[1,1′-biphenyl]-4-yl)carbonyl]-10,11-dihydro-5H-pyrrolo[2,1-c][1,4]benzodiazepin-3-yl}[(2S)-2-(1-pyrrolidinylmethyl)pyrrolidinyl]methanone] | 34 |  |
| COc1cc(C(=O)N2Cc3ccc(C(=O)N4CCC(N5CCCCC5)CC4)n3Cc3ccccc32)ccc1-c1cccc2ccccc12 [Example 118, {10-[3-Methoxy-4-(1-naphthyl)-benzoyl]-10,11-dihydro-5H-pyrrolo[2,1-c][1,4]benzodiazepin-3-yl}[4-(1-piperidinyl)-1-piperidinyl]methanone] |  | 39 |
| Cc1cc(C(=O)N2Cc3ccc(C(=O)N(CCCN(C)C)CCCN(C)C)n3Cc3ccccc32)ccc1-c1ccccc1C(F)(F)F [Example 3, 10-[(2-Methyl-2′-trifluoromethyl-[1,1′-biphenyl]-4-yl)-carbonyl]-10,11-dihydro-5H-pyrrolo[2,1-c][1,4]benzodiazepine-3-carboxylic acid bis-(3-dimethylamino-propyl)-amide] |  | 22 |
| Cc1cc(C(=O)N2Cc3ccc(C(=O)N4CCC(N5CCCCC5)CC4)n3Cc3ccccc32)ccc1-c1ccccc1C(F)(F)F [Example 122, {10-[(2-Methyl-2′-(trifluoromethyl) -[1,1′-biphenyl]-4-yl)carbonyl]-10,11-dihydro-5H -pyrrolo[2,1-c][1,4]benzodiazepin-3-yl}[4-(1-piperidinyl)-1-piperidinyl]methanone] |  | 8 |
| Cc1ccccc1-c1ccc(C(=O)N2Cc3ccc(C(=O)N4CCC[C@H]4CN4CCCC4)n3Cc3ccccc32)cc1 [Example 264, {10-[(2′-Methyl[1,1′-biphenyl]-4-yl)carbonyl]-10,11-dihydro-5H-pyrrolo[2,1-c][1,4]benzodiazepin-3-yl}[(2S)-2-(1-pyrrolidinylmethyl)pyrrolidinyl]methanone] | 12 |  |
| COc1ccccc1-c1ccc(C(=O)N2Cc3ccc(C(=O)N4CCC[C@H]4CN4CCCC4)n3Cc3ccccc32)cc1C [Example 259, {10-[(2′-Methoxy-2-methyl[1,1′-biphenyl]-4-yl)carbonyl]-10,11-dihydro-5H-pyrrolo[2,1-c][1,4]benzodiazepin-3-yl}[(2S)-2-(1-pyrrolidinylmethyl)pyrrolidinyl]methanone] | −3 |  |
| Cc1ccccc1-c1ccc(C(=O)N2Cc3ccc(C(=O)N4CCC(N5CCCC5)CC4)n3Cc3ccccc32)cc1C [Example 138, {10-[(2,2′-Dimethyl[1,1′-biphenyl]-4-yl)carbonyl]-10,11-dihydro-5H-pyrrolo[2,1-c][1,4]benzodiazepin-3-yl}[4-(1-pyrrolidinyl)-1-piperidinyl]methanone] |  | 29 |
| CN(C)CCCN(C)C(=O)c1ccc2n1Cc1ccccc1N(C(=O)c1ccc(-c3cccc4ccccc34)cc1Cl)C2 [Example 109, 10-[2-Chloro-4-(1-naphthyl)benzoyl]-N-[3-(dimethylamino)propyl]-N-methyl-10,11-dihydro-5H-pyrrolo[2,1-c][1,4]benzodiazepine-3-carboxamide] |  | 14 |
| COc1cc(C(=O)N2Cc3ccc(C(=O)N4CCC[C@H]4CN4CCCC4)n3Cc3ccccc32)ccc1-n1c(C)ccc1C [Example 321, {10-[4-(2,5-Dimethyl-1H-pyrrol-1-yl)-3-methoxybenzoyl]-10,11-dihydro-5H-pyrrolo[2,1-c][1,4]benzodiazepin-3-yl}[(2S)-2-(1-pyrrolidinylmethyl)pyrrolidinyl]methanone] | 23 |  |
| COc1ccccc1-c1ccc(C(=O)N2Cc3ccc(C(=O)N4CCC[C@H]4CN4CCCC4)n3Cc3ccccc32)cc1OC [Example 269, {10-[(2,2′-Dimethoxy[1,1′-biphenyl]-4-yl)carbonyl]-10,11-dihydro-5H-pyrrolo[2,1-c][1,4]benzodiazepin-3-yl}[(2S)-2-(1-pyrrolidinylmethyl)pyrrolidinyl]methanone] | −19 |  |
| COc1cc(C(=O)N2Cc3ccc(C(=O)N4CC[C@@H](N(C)C)C4)n3Cc3ccccc32)ccc1-n1c(C)ccc1C [Example 322, [(3R)-3-(Dimethylamino)pyrrolidinyl]{10-[4-(2,5-dimethyl-1H-pyrrol-1-yl)-3-methoxybenzoyl]-10,11-dihydro-5H-pyrrolo[2,1-c][1,4]benzodiazepin-3-yl}methanone] | 24 |  |
| {10-[(2,2′-Dimethoxy[1,1′-biphenyl]-4-yl)carbonyl]-10,11-dihydro-5H-pyrrolo[2,1-c][1,4]benzodiazepin-3-yl}(4-isopropyl-1-piperazinyl)methanone [Example 244] | 9 |  |
| COc1cc2c(cc1OC)N(C(=O)c1ccc(-c3ccccc3C(F)(F)F)c(C)c1)Cc1ccc(C(=O)N3CCC(=O)CC3)n1C2 [Example 14, 7,8-Dimethoxy-10-{[2-methyl-2′-(trifluoromethyl)-[1,1′-biphenyl]-4-yl]carbonyl}-[(10,11-dihydro-5H-pyrrolo[2,1-c][1,4]benzodiazepin-3-yl)carbonyl]-4-piperidinone] | −3 |  |
| COc1cccc(-c2cc(OC)c(C(=O)N3Cc4ccc(C(=O)N5CCC(N6CCCCC6)CC5)n4Cc4ccccc43)cc2Cl)c1 [Example 117, {10-[(6-Chloro-3-methoxy-3′-methoxy[1,1′-biphenyl]-4-yl)carbonyl]-10,11-dihydro-5H-pyrrolo[2,1-c][1,4]benzodiazepin-3-yl}[4-(1-piperidinyl)-1-piperidinyl]methanone] |  | 14 |
| COc1cc(C(=O)N2Cc3ccc(C(=O)NCCN4CCCCC4)n3Cc3ccccc32)ccc1-c1ccccc1C [Example 154, 10-[(2-Methoxy-2′-methyl[1,1′-biphenyl]4-yl)carbonyl]-N-[2-(1-piperidinyl)ethyl]-10,11-dihydro-5H-pyrrolo[2,1-c][1,4]benzodiazepine-3-carboxamide] |  | 9 |
